Consider 1 substance from patent US7390870B2, “Immune-enhancing peptides” (Posco, priority 2001, dated 2008).

For assay [1], the system named is human neutrophils. In words: [Ca2+]i increase in human neutrophils (fura-2). The class given is cell-based. The note with it: FIG. 4A; 1 μM peptide. As for the experimental part:
(§1) The level of [Ca^2+]i was determined by Grynkiewicz's method using fura-2/AM (21). Briefly, prepared cells were incubated with 3 μM fura-2/AM at 37° C. for 50 minutes in a fresh serum-free RPMI 1640 medium under continuous stirring. 2×10^6 cells were aliquoted for each assay in Ca^2+-free Locke's solution (154 mM NaCl, 5.6 mM KCl1.2 mM MgCl2, 5 mM HEPES, pH 7.3, 10 mM glucose, and 0.2 mM EGTA). The fluorescence changes at the dual excitation wavelengths of 340 nm and 380 nm and the emission wavelength of 500 nm were measured, and the calibrated fluorescence ratio was translated into [Ca^2+]i.
From the fact that HFYLPM, MFYLPM, and HFYLPm stimulate human monocytes, effects of the peptides on other leukocytes such as neutrophils were evaluated. Prepared human primary monocytes, neutrophils, cultured HL60, Jurkat, U937, NIH3T3, 3Y1, 3T3L1, and PC12 cells were loaded with fura-2 and stimulated with effective concentrations of the three peptides (1 μM for monocyte and neutrophil; 10 μM for HL60 and Jurkat; 20 μM for U937, NIH3T3, 3Y1, 3T3L1, and PC12). The peak level of the [Ca^2+]i increase was recorded and superoxide generation was measured using cytochrome c reduction assay. The results are shown FIG. 4. The data of FIG. 4 are presented as means ±S.E. from at least three independent experiments.

The subject of assay [2] is HL60 human promyelocytic cells. In words: [Ca2+]i increase in undifferentiated HL60 cells (fura-2). The class given is cell-based. As for the experimental part: as §1
(§2) From the fact that HFYLPM, MFYLPM, and HFYLPm stimulate human monocytes, effects of the peptides on other leukocytes such as neutrophils were evaluated. […] The peak level of the [Ca^2+]i increase was recorded and superoxide generation was measured using cytochrome c reduction assay. […]
A test where the three peptides on HL60 cells that had differentiated into granulocytes after having been cultured in the presence of 1.25% DMSO for 4 days was performed. […] The peak level of the [Ca^2+]i increase was recorded. […]

The subject of assay [3] is human neutrophils. Briefly: Superoxide generation by human neutrophils (cytochrome c reduction assay). The note with it: FIG. 4B; 10 μM of each peptide. The class given is cell-based. The protocol: (§3) For initial screening of the PS-SPCLs, the superoxide anion generation of each peptide pool was evaluated by measuring reduction of cytochrome c using a microtiter 96 well plate ELISA reader (Bio-Tekinstruments, EL312e, Winooski, Vt.) as described (20). The cytochrome c was purchased from Sigma (St. Louis, Mo.). The human monocytes (9×10^5 cells/100 □ of RPMI 1640 medium per well of a 96-well plate) were preincubated with 50 μM cytochrome c at 37° C. for 1 minute and then incubated with the indicated concentrations of peptide pools (final 0.5 nM per peptide sequence for the initial screening). The superoxide generation was measured as change in light absorption at 550 nm over 5 minutes at 1 minute intervals. From at least four independent experiments, peptides with active amino acids at each position were chosen. Superoxide generation by the identified peptides was measured by the same method. Spurious reduction of cytochrome c was ruled out by checking that the peptides-induced ones were superoxide dismutase-inhibitable in all experiments.
as §2

Assay [4] relates to differentiated HL60 cells. In words: Superoxide generation in differentiated HL60 cells. The class given is cell-based, human. The note with it: similar concentrations as for the [Ca2+]i increase. As for the experimental part: as §3
A test where the three peptides on HL60 cells that had differentiated into granulocytes after having been cultured in the presence of 1.25% DMSO for 4 days was performed. HL60 cells were cultured in RPMI medium containing 20% FCS. […] The peak level of the [Ca^2+]i increase was recorded. […]

For assay [5], the system named is monocytes. In words: Receptor specificity: monocyte chemotaxis after preincubation with a peptide. The class given is cell-based, human. The note with it: FIG. 9, preincubation 10 μM peptide 10 minutes. As for the experimental part: Chemotaxis assays of the peptide were performed using multiwell chambers (Neuroprobe Inc., Gaithersburg, Md.) (20). Briefly, the prepared isolated human monocytes were suspended in RPMI at a concentration of 1×10^6 cells/ml of serum-free RPMI, and 25 □ of the suspension were placed onto the upper well of a 96-well chemotaxis chamber that was separated by a […] filter with a 5 □ pore size (3 □ diameter pores not coated with polyvinylpyrrolidone for neutrophils) from peptides or an fMLF-containing lower well. After incubation for 2 hours (90 minutes for neutrophils) at 37° C., non-migrated cells were removed by scraping them out, and cells that migrated across the filter were dehydrated, fixed, and stained with hematoxylin (Sigma, St. Louis, Mo.). The stained cells in five randomly chosen high power fields (HPF) (400×) in that well were then counted (21). The numbers of migrated cells were determined by counting them in a high power field (400×). For a checkboard analysis, cells were re-suspended in RPMI containing various concentrations of the peptide just before transferring them to the upper wells as described before (22).
The three peptides, HFYLPM, MFYLPM, and HFYLPm which have similar sequences, exerted similar effects on human leukocytes in that they stimulated superoxide generation and chemotactic migration involving PTX-sensitive G-protein(s). So an attempt to reveal whether the three peptides acted through the same or different receptor(s) was carried out. For this purpose, monocytes were preincubated with 10 μM of each peptide, HFYLPM, MFYLPM, or HFYLPm for 10 minutes at 37° C., or they remained untreated. After washing twice, the cells were used for chemotaxis assay. The cells were allowed to migrate towards the maximal effective concentrations of each peptide (1 μM HFYLPM, 1 μM MFYLPM, or 10 nM HFYLPm) or medium. After fixing and staining of the membrane, migrated cells were quantified microscopically. […]

No end group written: not given here.

“Met-Phe-Tyr-Leu-Pro-Met-CONH2 (MFYLPM-NH2)”: the “[Ca2+]i increase in neutrophils” value in assay [1] is “increase their [Ca^2+]i”. In addition, the “[Ca2+]i increase in HL60 cells” value in assay [2] (FIG. 4A, HFYLPM up to 20 μM) is “caused a [Ca^2+]i increase”. Further, the “[Ca2+]i rise in undifferentiated HL60 cells” value in assay [2] (FIG. 5, various concentrations) is “stimulated both undifferentiated and differentiated HL60 cells”. In addition, the “superoxide generation by neutrophils” value in assay [3] was “generate superoxides”. Also, in assay [4], the “superoxide generation in differentiated HL60 cells” value is reported as “resulted in superoxide generation”. In addition, the “inhibition of HFYLPm-induced cell migration by preincubation with peptide” value in assay [5] (migration towards 10 nM HFYLPm) is “no inhibition”; in assay [5] (migration towards 1 μM HFYLPM), “partial inhibition”. Besides, the “inhibition of MFYLPM-induced cell migration by preincubation with peptide” value in assay [5] (migration towards 1 μM MFYLPM) was “complete inhibition”.
